Measurements from ChEMBL document CHEMBL2010767, “Agonists for the Chemokine Receptor CXCR4” (ACS Med Chem Lett, 2011).
pIC50: −log10 of the molar value. Calls of active or inactive are those of the source. No cut-off for these calls is given here.

How the values were obtained:
[1] = target: T1, C-X-C chemokine receptor type 4 (Homo sapiens, UniProt P61073); test: Displacement of [125I]-SDF-1alpha from human CXCR4 receptor expressed in HEK293 cells after 1 hr by gamma counting; assay type: cell-based
T1 sequence (P61073 whole entry): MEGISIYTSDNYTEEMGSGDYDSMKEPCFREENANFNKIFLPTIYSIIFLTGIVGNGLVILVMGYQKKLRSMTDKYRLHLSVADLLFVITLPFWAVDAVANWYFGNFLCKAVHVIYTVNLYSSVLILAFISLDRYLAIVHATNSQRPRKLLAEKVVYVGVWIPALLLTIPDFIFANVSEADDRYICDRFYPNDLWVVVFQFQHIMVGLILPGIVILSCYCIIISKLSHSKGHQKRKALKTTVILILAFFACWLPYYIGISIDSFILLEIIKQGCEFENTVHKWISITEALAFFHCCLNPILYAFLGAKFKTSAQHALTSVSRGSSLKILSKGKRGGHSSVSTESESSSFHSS

[2] = target: T1, C-X-C chemokine receptor type 4; test: Agonist activity at CXCR4 receptor in human REH cells assessed as induction of chemotactic migration at 10 nM after 3 hrs; assay type: functional, cell-based
[3] = target: T1, C-X-C chemokine receptor type 4; test: Agonist activity at CXCR4 receptor in human REH cells assessed as induction of chemotactic migration after 3 hrs; assay type: functional, cell-based
[4] = target: T1, C-X-C chemokine receptor type 4; test: Antagonist activity at CXCR4 receptor in human REH cells assessed as inhibition of SDF-1alpha-induced chemotactic migration after 3 hrs; assay type: functional, cell-based

| SMILES | pIC50 [1] | other results |
| --- | --- | --- |
| CC(C)C[C@H](NC(=O)[C@H](CO)NC(=O)[C@@H](NC(=O)[C@@H]1CCCN1C(=O)[C@@H](N)CCCCN)C(C)C)C(=O)N[C@@H](CO)C(=O)N[C@@H](Cc1ccc(O)cc1)C(=O)N[C@@H](CCCNC(=N)N)C(=O)N[C@@H](CO)C(=O)N[C@@H](C)C(=O)NCCCC[C@H](NC(=O)[C@@H]1CSSC[C@H](NC(=O)[C@H](Cc2ccc3ccccc3c2)NC(=O)[C@H](CCCNC(=N)N)NC(=O)[C@@H](N)CCCNC(=N)N)C(=O)N[C@@H](Cc2ccc(O)cc2)C(=O)N[C@@H](CCCNC(=N)N)C(=O)N[C@@H](CCCCN)C(=O)N[C@H](CCCCN)C(=O)N2CCC[C@H]2C(=O)N[C@@H](Cc2ccc(O)cc2)C(=O)N[C@@H](CCCNC(=N)N)C(=O)N[C@@H](CCCNC(=N)N)C(=O)C1)C(=O)O |  | Activity [2]: Active |
| CC(C)C[C@H](NC(=O)[C@H](CO)NC(=O)[C@@H](NC(=O)[C@@H]1CCCN1C(=O)[C@@H](N)CCCCN)C(C)C)C(=O)N[C@@H](CO)C(=O)N[C@@H](Cc1ccc(O)cc1)C(=O)N[C@@H](CCCNC(=N)N)C(=O)NCCCC[C@H](NC(=O)[C@@H]1CSSC[C@H](NC(=O)[C@H](Cc2ccc3ccccc3c2)NC(=O)[C@H](CCCNC(=N)N)NC(=O)[C@@H](N)CCCNC(=N)N)C(=O)N[C@@H](Cc2ccc(O)cc2)C(=O)N[C@@H](CCCNC(=N)N)C(=O)N[C@@H](CCCCN)C(=O)N[C@H](CCCCN)C(=O)N2CCC[C@H]2C(=O)N[C@@H](Cc2ccc(O)cc2)C(=O)N[C@@H](CCCNC(=N)N)C(=O)N[C@@H](CCCNC(=N)N)C(=O)C1)C(=O)O | 7.78 | Activity [3]: inactive |
| NCCCC[C@@H]1NC(=O)[C@H](CCCN=C(N)N)NC(=O)[C@H](Cc2ccc(O)cc2)NC(=O)[C@@H](NC(=O)[C@H](Cc2ccc3ccccc3c2)NC(=O)[C@H](CCCN=C(N)N)NC(=O)[C@@H](N)CCCN=C(N)N)CSSC[C@@H](C(=O)N[C@@H](CCCN=C(N)N)C(=O)O)CC(=O)[C@H](CCCNC(N)=O)NC(=O)[C@H](CCCN=C(N)N)NC(=O)[C@H](Cc2ccc(O)cc2)NC(=O)[C@@H]2CCCN2C(=O)[C@@H](CCCCN)NC1=O | 8.81 |  |
| CC(C)C[C@H](NC(=O)[C@H](CO)NC(=O)[C@@H](NC(=O)[C@@H]1CCCN1C(=O)[C@@H](N)CCCCN)C(C)C)C(=O)N[C@@H](CO)C(=O)NCCCC[C@H](NC(=O)[C@@H]1CSSC[C@H](NC(=O)[C@H](Cc2ccc3ccccc3c2)NC(=O)[C@H](CCCNC(=N)N)NC(=O)[C@@H](N)CCCNC(=N)N)C(=O)N[C@@H](Cc2ccc(O)cc2)C(=O)N[C@@H](CCCNC(=N)N)C(=O)N[C@@H](CCCCN)C(=O)N[C@H](CCCCN)C(=O)N2CCC[C@H]2C(=O)N[C@@H](Cc2ccc(O)cc2)C(=O)N[C@@H](CCCNC(=N)N)C(=O)N[C@@H](CCCNC(N)=O)C(=O)C1)C(=O)O |  | Activity [3]: inactive |
| CC(C)C[C@H](NC(=O)[C@H](CO)NC(=O)[C@@H](NC(=O)[C@@H]1CCCN1C(=O)[C@@H](N)CCCCN)C(C)C)C(=O)N[C@@H](CO)C(=O)N[C@@H](Cc1ccc(O)cc1)C(=O)NCCCC[C@H](NC(=O)[C@@H]1CSSC[C@H](NC(=O)[C@H](Cc2ccc3ccccc3c2)NC(=O)[C@H](CCCNC(=N)N)NC(=O)[C@@H](N)CCCNC(=N)N)C(=O)N[C@@H](Cc2ccc(O)cc2)C(=O)N[C@@H](CCCNC(=N)N)C(=O)N[C@@H](CCCCN)C(=O)N[C@H](CCCCN)C(=O)N2CCC[C@H]2C(=O)N[C@@H](Cc2ccc(O)cc2)C(=O)N[C@@H](CCCNC(=N)N)C(=O)N[C@@H](CCCNC(=N)N)C(=O)C1)C(=O)O | 7.41 | Activity [2]: Active |
| CC(C)C[C@H](NC(=O)[C@H](CO)NC(=O)[C@@H](NC(=O)[C@@H]1CCCN1C(=O)[C@@H](N)CCCCN)C(C)C)C(=O)N[C@@H](CO)C(=O)N[C@@H](Cc1ccc(O)cc1)C(=O)N[C@@H](CCCNC(=N)N)C(=O)N[C@@H](CO)C(=O)NCCCC[C@H](NC(=O)[C@@H]1CSSC[C@H](NC(=O)[C@H](Cc2ccc3ccccc3c2)NC(=O)[C@H](CCCNC(=N)N)NC(=O)[C@@H](N)CCCNC(=N)N)C(=O)N[C@@H](Cc2ccc(O)cc2)C(=O)N[C@@H](CCCNC(=N)N)C(=O)N[C@@H](CCCCN)C(=O)N[C@H](CCCCN)C(=O)N2CCC[C@H]2C(=O)N[C@@H](Cc2ccc(O)cc2)C(=O)N[C@@H](CCCNC(=N)N)C(=O)N[C@@H](CCCNC(=N)N)C(=O)C1)C(=O)O |  | Activity [2]: Active |
| CC(C)C[C@H](NC(=O)[C@H](CO)NC(=O)[C@@H](NC(=O)[C@@H]1CCCN1C(=O)[C@@H](N)CCCCN)C(C)C)C(=O)N[C@@H](CO)C(=O)NCCCC[C@H](NC(=O)[C@@H]1CSSC[C@H](NC(=O)[C@H](Cc2ccc3ccccc3c2)NC(=O)[C@H](CCCNC(=N)N)NC(=O)[C@@H](N)CCCNC(=N)N)C(=O)N[C@@H](Cc2ccc(O)cc2)C(=O)N[C@@H](CCCNC(=N)N)C(=O)N[C@@H](CCCCN)C(=O)N[C@H](CCCCN)C(=O)N2CCC[C@H]2C(=O)N[C@@H](Cc2ccc(O)cc2)C(=O)N[C@@H](CCCNC(=N)N)C(=O)N[C@@H](CCCNC(=N)N)C(=O)C1)C(=O)O | 7.55 | Activity [3]: inactive |
| CC(C)C[C@H](NC(=O)[C@H](CO)NC(=O)[C@@H](NC(=O)[C@@H]1CCCN1C(=O)[C@@H](N)CCCCN)C(C)C)C(=O)N[C@@H](CO)C(=O)N[C@@H](Cc1ccc(O)cc1)C(=O)N[C@@H](CCCNC(=N)N)C(=O)NCCCC[C@@H]1NC(=O)[C@H](CCCNC(=N)N)NC(=O)[C@H](Cc2ccc(O)cc2)NC(=O)[C@@H]2CCCN2C(=O)[C@@H](CCCCN)NC(=O)[C@H](CCCCN)NC(=O)[C@H](CCCNC(=N)N)NC(=O)[C@H](Cc2ccc(O)cc2)NC(=O)[C@@H](NC(=O)[C@H](Cc2ccc3ccccc3c2)NC(=O)[C@H](CCCNC(=N)N)NC(=O)[C@@H](N)CCCNC(=N)N)CSSC[C@@H](C(=O)N[C@@H](CCCNC(=N)N)C(=O)O)CC1=O |  | Activity [4]: Active |

The next lines start with results.

| pIC50 [1] | SMILES | other results |
| --- | --- | --- |
| 8.25 | CC(C)C[C@H](NC(=O)[C@H](CO)NC(=O)[C@@H](NC(=O)[C@@H]1CCCN1C(=O)[C@@H](N)CCCCN)C(C)C)C(=O)N[C@@H](CO)C(=O)N[C@@H](Cc1ccc(O)cc1)C(=O)N[C@@H](CCCN=C(N)N)C(=O)N[C@@H](CO)C(=O)NCCCC[C@H](NC(=O)[C@@H]1CSSC[C@H](NC(=O)[C@H](Cc2ccc3ccccc3c2)NC(=O)[C@H](CCCN=C(N)N)NC(=O)[C@@H](N)CCCN=C(N)N)C(=O)N[C@@H](Cc2ccc(O)cc2)C(=O)N[C@@H](CCCN=C(N)N)C(=O)N[C@@H](CCCCN)C(=O)N[C@H](CCCCN)C(=O)N2CCC[C@H]2C(=O)N[C@@H](Cc2ccc(O)cc2)C(=O)N[C@@H](CCCN=C(N)N)C(=O)N[C@@H](CCCN=C(N)N)C(=O)C1)C(=O)O |  |
| 7.21 | CC(C)C[C@H](NC(=O)[C@H](CO)NC(=O)[C@@H](NC(=O)[C@@H]1CCCN1C(=O)[C@@H](N)CCCCN)C(C)C)C(=O)N[C@@H](CO)C(=O)NCCCC[C@H](NC(=O)[C@@H]1CSSC[C@H](NC(=O)[C@H](Cc2ccc3ccccc3c2)NC(=O)[C@H](CCCN=C(N)N)NC(=O)[C@@H](N)CCCN=C(N)N)C(=O)N[C@@H](Cc2ccc(O)cc2)C(=O)N[C@@H](CCCN=C(N)N)C(=O)N[C@@H](CCCCN)C(=O)N[C@H](CCCCN)C(=O)N2CCC[C@H]2C(=O)N[C@@H](Cc2ccc(O)cc2)C(=O)N[C@@H](CCCN=C(N)N)C(=O)N[C@@H](CCCNC(N)=O)C(=O)C1)C(=O)O |  |
| 8.87 | CC(C)C[C@H](NC(=O)[C@H](CO)NC(=O)[C@@H](NC(=O)[C@@H]1CCCN1C(=O)[C@@H](N)CCCCN)C(C)C)C(=O)N[C@@H](CO)C(=O)N[C@@H](Cc1ccc(O)cc1)C(=O)N[C@@H](CCCN=C(N)N)C(=O)NCCCC[C@@H]1NC(=O)[C@H](CCCN=C(N)N)NC(=O)[C@H](Cc2ccc(O)cc2)NC(=O)[C@@H]2CCCN2C(=O)[C@@H](CCCCN)NC(=O)[C@H](CCCCN)NC(=O)[C@H](CCCN=C(N)N)NC(=O)[C@H](Cc2ccc(O)cc2)NC(=O)[C@@H](NC(=O)[C@H](Cc2ccc3ccccc3c2)NC(=O)[C@H](CCCN=C(N)N)NC(=O)[C@@H](N)CCCN=C(N)N)CSSC[C@@H](C(=O)N[C@@H](CCCN=C(N)N)C(=O)O)CC1=O |  |
| 7.67 | CC(C)C[C@H](NC(=O)[C@H](CO)NC(=O)[C@@H](NC(=O)[C@@H]1CCCN1C(=O)[C@@H](N)CCCCN)C(C)C)C(=O)N[C@@H](CO)C(=O)N[C@@H](Cc1ccc(O)cc1)C(=O)N[C@@H](CCCNC(=N)N)C(=O)N[C@@H](CO)C(=O)NCCCC[C@H](NC(=O)[C@@H]1CSSC[C@H](NC(=O)[C@H](Cc2ccc3ccccc3c2)NC(=O)[C@H](CCCNC(=N)N)NC(=O)[C@@H](N)CCCNC(=N)N)C(=O)N[C@@H](Cc2ccc(O)cc2)C(=O)N[C@@H](CCCNC(=N)N)C(=O)N[C@@H](CCCCN)C(=O)N[C@H](CCCCN)C(=O)N2CCC[C@H]2C(=O)N[C@@H](Cc2ccc(O)cc2)C(=O)N[C@@H](CCCNC(=N)N)C(=O)N[C@@H](CCCNC(N)=O)C(=O)C1)C(=O)O | Activity [3]: inactive |
| 7.60 | CC(C)C[C@H](NC(=O)[C@H](CO)NC(=O)[C@@H](NC(=O)[C@@H]1CCCN1C(=O)[C@@H](N)CCCCN)C(C)C)C(=O)N[C@@H](CO)C(=O)N[C@@H](Cc1ccc(O)cc1)C(=O)N[C@@H](CCCN=C(N)N)C(=O)N[C@@H](CO)C(=O)N[C@@H](C)C(=O)NCCCC[C@H](NC(=O)[C@@H]1CSSC[C@H](NC(=O)[C@H](Cc2ccc3ccccc3c2)NC(=O)[C@H](CCCN=C(N)N)NC(=O)[C@@H](N)CCCN=C(N)N)C(=O)N[C@@H](Cc2ccc(O)cc2)C(=O)N[C@@H](CCCN=C(N)N)C(=O)N[C@@H](CCCCN)C(=O)N[C@H](CCCCN)C(=O)N2CCC[C@H]2C(=O)N[C@@H](Cc2ccc(O)cc2)C(=O)N[C@@H](CCCN=C(N)N)C(=O)N[C@@H](CCCN=C(N)N)C(=O)C1)C(=O)O |  |
| 7.66 | CC(C)C[C@H](NC(=O)[C@H](CO)NC(=O)[C@@H](NC(=O)[C@@H]1CCCN1C(=O)[C@@H](N)CCCCN)C(C)C)C(=O)N[C@@H](CO)C(=O)N[C@@H](Cc1ccc(O)cc1)C(=O)N[C@@H](CCCN=C(N)N)C(=O)NCCCC[C@H](NC(=O)[C@@H]1CSSC[C@H](NC(=O)[C@H](Cc2ccc3ccccc3c2)NC(=O)[C@H](CCCN=C(N)N)NC(=O)[C@@H](N)CCCN=C(N)N)C(=O)N[C@@H](Cc2ccc(O)cc2)C(=O)N[C@@H](CCCN=C(N)N)C(=O)N[C@@H](CCCCN)C(=O)N[C@H](CCCCN)C(=O)N2CCC[C@H]2C(=O)N[C@@H](Cc2ccc(O)cc2)C(=O)N[C@@H](CCCN=C(N)N)C(=O)N[C@@H](CCCNC(N)=O)C(=O)C1)C(=O)O |  |
